Measurements taken from US9943566B2, “NF-κB inhibitor composition for skin health” (Geoffrey Brooks Consultants, LLC, priority 2016, dated 2018).

System: cultured human fibroblasts
Assay: DNA microarray analysis of gene expression in cultured human fibroblasts treated with peptides
Format: cell-based
Details: for Peptide Fluorescent Intensity: TGFB / Peptide Fluorescent Intensity: TGFBR1 / Peptide Fluorescent Intensity: TGFBR3: TGF Family Molecules
Description: Expression levels for a variety of different genes treated with N-M-A-N-A-K (SEQ ID NO: 1) and A-N-V-A-E-N-A (SEQ ID NO: 2) were determined using DNA microarray analysis of cultured human fibroblasts at BioInnovation Laboratories, Inc., Lakewood, Colo.
The microarrays were scanned with an Axon GenePix 4100A Scanner with the scanning resolution set to 10 μm and analyzed with GenePix Pro software. During the initial scan the PMT gains for the scanner were adjusted such that the Cy5/Cy3 image count ratios were between 0.9 and 1.1.
To derive the standard curve for the assay, the relative fluorescent units versus the known RNA concentrations in μg/ml for the standards were plotted and subjected to regression analysis to establish the line that best fit the data points. Mean RFU values for the test materials and untreated samples were used to estimate the amount of RNA present in each sample.
Because the level of gene expression is related to the fluorescence intensity of the probed gene marker on the microarray, and since it is possible to have differences in labeling efficiency when making the Cy3 and Cy5 probes, it is essential to normalize the fluorescence measurements between the two respective dyes before examining changes in gene expression. As a result, fluorescence intensities for the microarrays were subjected to global normalization. The total fluorescent signal for both dyes was normalized with a correction factor so that the ratio of total intensities for both dyes was equal to one.
The resulting normalized total fluorescent signals for peptides, N-M-A-N-A-K (SEQ ID NO: 1) and A-N-V-A-E-N-A (SEQ ID NO: 2) with a variety of gene samples are shown in Table 1.

[1] = 10 ppm peptide, Additional Genes
[2] = 10 ppm peptide, Extracellular Matrix Genes Regulated by TGF Beta
[3] = 10 ppm peptide, Genes that Regulate Wound Healing (regulated by TGF beta)
[4] = 10 ppm peptide, Molecules that Regulate TGF Beta Expression/Activity
[5] = 10 ppm peptide, TGF Beta Signaling Pathway Molecules
[6] = 10 ppm peptide, Anti-Inflammatory

Substance: ANVAENA (TGF-beta mimic)
- Peptide Fluorescent Intensity: LOX [1]: 0.974
- Peptide Fluorescent Intensity: OGG1 [1]: 1.364
- Peptide Fluorescent Intensity: PLOD [1]: 1.112
- Peptide Fluorescent Intensity: PLOD2 [1]: 0.445
- Peptide Fluorescent Intensity: PLOD3 [1]: 3.805
- Peptide Fluorescent Intensity: RAD23A [1]: 0.078
- Peptide Fluorescent Intensity: RAD23B [1]: 1.218
- Peptide Fluorescent Intensity: SIRT1 [1]: 0.228
- Peptide Fluorescent Intensity: SIRT3 [1]: 0.010
- Peptide Fluorescent Intensity: TERT [1]: 0.198
- Peptide Fluorescent Intensity: COL1A1 [2]: 2.198
- Peptide Fluorescent Intensity: COL1A2 [2]: 3.669
- Peptide Fluorescent Intensity: COL3A1 [2]: 2.987
- Peptide Fluorescent Intensity: COL4A1 [2]: 0.910
- Peptide Fluorescent Intensity: COL6A1 [2]: 6.282
- Peptide Fluorescent Intensity: COL6A2 [2]: 2.902
- Peptide Fluorescent Intensity: COL7 [2]: 0.435
- Peptide Fluorescent Intensity: CTGF [2]: 0.076
- Peptide Fluorescent Intensity: EGFR [2]: 1.133
- Peptide Fluorescent Intensity: Fibronectin [2]: 1.407
- Peptide Fluorescent Intensity: IL-6 [2]: 1.135
- Peptide Fluorescent Intensity: MMP1 [2]: 1.991
- Peptide Fluorescent Intensity: MMP2 [2]: 0.034
- Peptide Fluorescent Intensity: PDGFR alpha subunit [2]: 1.330
- Peptide Fluorescent Intensity: TIMP1 [2]: 4.567
- Peptide Fluorescent Intensity: Tenascin (TNXB) [2]: 1.353
- Peptide Fluorescent Intensity: βIG-H3 (TGFBI) [2]: 2.069
- Peptide Fluorescent Intensity: FGF2 [3]: 0.912
- Peptide Fluorescent Intensity: GM-CSF (CSF2) [3]: 0.014
- Peptide Fluorescent Intensity: VEGFA [3]: 0.798
- Peptide Fluorescent Intensity: Activin A beta subunit (INHBB) [4]: 0.261
- Peptide Fluorescent Intensity: BMP1 [4]: 0.497
- Peptide Fluorescent Intensity: Follistatin (FST) [4]: 0.594
- Peptide Fluorescent Intensity: Inhibin (INHA) [4]: 0.264
- Peptide Fluorescent Intensity: LTBP (LTBP1) [4]: 0.652
- Peptide Fluorescent Intensity: MMP2 [4]: 0.034
- Peptide Fluorescent Intensity: YY1 [4]: 0.713
- Peptide Fluorescent Intensity: CBP (CREBBP) [5]: 0.375
- Peptide Fluorescent Intensity: SAR1A [5]: 1.905
- Peptide Fluorescent Intensity: SP1 [5]: 0.590
- Peptide Fluorescent Intensity: Smad1 [5]: 1.325
- Peptide Fluorescent Intensity: Smad2 [5]: 0.824
- Peptide Fluorescent Intensity: Smad3 [5]: 1.202
- Peptide Fluorescent Intensity: Smad4 [5]: 0.374
- Peptide Fluorescent Intensity: Smad6 [5]: 0.136
- Peptide Fluorescent Intensity: Smad7 [5]: 0.357
- Peptide Fluorescent Intensity: p38MAPK (MAPK14) [5]: 0.594
- Peptide Fluorescent Intensity: p300 (EP300) [5]: 0.961
- Peptide Fluorescent Intensity: TGFB (10 ppm peptide): 0.113
- Peptide Fluorescent Intensity: TGFBR1 (10 ppm peptide): 0.128
- Peptide Fluorescent Intensity: TGFBR3 (10 ppm peptide): 0.098
- impact on anti-inflammatory genes (peptide alone, in words): does not impact anti-inflammatory genes significantly

Substance: Asparagine-Methionine-Alanine-Asparagine-Alanine-Lysine (Asn-Met-Ala-Asn-Ala-Lys) [NMANAK]
- number of anti-inflammatory genes upregulated (COX1, COX411, COX7C, COX8A, DEFB4, IL10RB, IL26, IL27, ILF2, ILDR1) (10 ppm peptide): ≥ 10
- Peptide Fluorescent Intensity: AQP3 [1]: 3.294
- Peptide Fluorescent Intensity: EEF1A1 (cell growth) [1]: 6.301
- Peptide Fluorescent Intensity: EEF1A2 (cancer cell growth) [1]: 0.067
- Peptide Fluorescent Intensity: EEF1G (aminoacyl transferase - glutathione) [1]: 1.928
- Peptide Fluorescent Intensity: LOX [1]: 1.035
- Peptide Fluorescent Intensity: OGG1 [1]: 1.176
- Peptide Fluorescent Intensity: PLOD [1]: 1.105
- Peptide Fluorescent Intensity: PLOD2 [1]: 1.085
- Peptide Fluorescent Intensity: PLOD3 [1]: 4.092
- Peptide Fluorescent Intensity: RAD23A [1]: 0.933
- Peptide Fluorescent Intensity: RAD23B [1]: 0.603
- Peptide Fluorescent Intensity: SIRT1 [1]: 0.410
- Peptide Fluorescent Intensity: SIRT3 [1]: 0.735
- Peptide Fluorescent Intensity: SIRT 5 [1]: 1.482
- Peptide Fluorescent Intensity: COX1 [6]: 2.645
- Peptide Fluorescent Intensity: COX7C [6]: 1.341
- Peptide Fluorescent Intensity: COX8A [6]: 1.803
- Peptide Fluorescent Intensity: COX411 [6]: 2.067
- Peptide Fluorescent Intensity: DEFB4 [6]: 4.798
- Peptide Fluorescent Intensity: IL10RB [6]: 1.889
- Peptide Fluorescent Intensity: IL26 [6]: 2.036
- Peptide Fluorescent Intensity: IL27 [6]: 2.257
- Peptide Fluorescent Intensity: ILDR1 (immunoglobin receptor) [6]: 1.546
- Peptide Fluorescent Intensity: ILF2 [6]: 4.120
- Peptide Fluorescent Intensity: BMP7 [2]: 2.000
- Peptide Fluorescent Intensity: COL1A2 [2]: 3.992
- Peptide Fluorescent Intensity: COL3A1 [2]: 2.047
- Peptide Fluorescent Intensity: COL6A1 [2]: 3.446
- Peptide Fluorescent Intensity: COL6A2 [2]: 1.705
- Peptide Fluorescent Intensity: COL7 [2]: 1.080
- Peptide Fluorescent Intensity: CTGF [2]: 0.429
- Peptide Fluorescent Intensity: EGFR [2]: 1.159
- Peptide Fluorescent Intensity: ELA2A (elastase) [2]: 3.148
- Peptide Fluorescent Intensity: ELN [2]: 0.773
- Peptide Fluorescent Intensity: FGF3 (fibroblast growth factor) [2]: 2.000
- Peptide Fluorescent Intensity: MMP1 [2]: 1.164
- Peptide Fluorescent Intensity: MMP2 [2]: 0.785
- Peptide Fluorescent Intensity: PDGFR alpha subunit [2]: 1.608
- Peptide Fluorescent Intensity: TIMP1 [2]: 4.057
- Peptide Fluorescent Intensity: Tenascin (TNXB) [2]: 1.752
- Peptide Fluorescent Intensity: FGF2 [3]: 0.679
- Peptide Fluorescent Intensity: VEGFA [3]: 1.385
- Peptide Fluorescent Intensity: Activin A beta subunit (INHBB) [4]: 0.095
- Peptide Fluorescent Intensity: BMP1 [4]: 0.837
- Peptide Fluorescent Intensity: Follistatin (FST) [4]: 0.665
- Peptide Fluorescent Intensity: Inhibin (INHA) [4]: 1.917
- Peptide Fluorescent Intensity: LTBP (LTBP1) [4]: 0.268
- Peptide Fluorescent Intensity: YY1 [4]: 1.378
- Peptide Fluorescent Intensity: CBP (CREBBP) [5]: 0.743
- Peptide Fluorescent Intensity: SAR1A [5]: 1.632
- Peptide Fluorescent Intensity: SP1 [5]: 0.932
- Peptide Fluorescent Intensity: Smad1 [5]: 0.918
- Peptide Fluorescent Intensity: Smad2 [5]: 0.857
- Peptide Fluorescent Intensity: Smad3 [5]: 0.882
- Peptide Fluorescent Intensity: Smad4 [5]: 0.454
- Peptide Fluorescent Intensity: Smad6 [5]: 1.354
- Peptide Fluorescent Intensity: Smad7 [5]: 1.160
- Peptide Fluorescent Intensity: p38MAPK (MAPK14) [5]: 1.057
- Peptide Fluorescent Intensity: TGFB (10 ppm peptide): 1.224
- Peptide Fluorescent Intensity: TGFBR1 (10 ppm peptide): 0.373
- Peptide Fluorescent Intensity: TGFBR3 (10 ppm peptide): 1.229
- effect on AQP3 (aquaporin3) and EEf1G (glutathione) genes (10 ppm peptide, in words): upregulated
- effect on genes expressing extra-cellular matrix components, including collagen production genes COL1A2, COL3A1, COL6A1 and COL6A2 (10 ppm peptide, in words): upregulation
- effect on genes that control TGF-β expression (YY1, INHA) (10 ppm peptide, in words): upregulating
